Results on twelve molecules are retold here after ChEMBL document CHEMBL1649106, “Structures of 1-Deoxy-D-Xylulose-5-Phosphate Reductoisomerase/Lipophilic Phosphonate Complexes” (ACS Med Chem Lett, 2011).

Molecules are shown by their SMILES.

The subject of one series is Plasmodium falciparum. Description: Antimalarial activity against Plasmodium falciparum. It is filed as functional, organism-based.
Series [1] has as its target T1, 1-deoxy-D-xylulose 5-phosphate reductoisomerase (Escherichia coli K-12, UniProt P45568).
T1 sequence (P45568 whole entry): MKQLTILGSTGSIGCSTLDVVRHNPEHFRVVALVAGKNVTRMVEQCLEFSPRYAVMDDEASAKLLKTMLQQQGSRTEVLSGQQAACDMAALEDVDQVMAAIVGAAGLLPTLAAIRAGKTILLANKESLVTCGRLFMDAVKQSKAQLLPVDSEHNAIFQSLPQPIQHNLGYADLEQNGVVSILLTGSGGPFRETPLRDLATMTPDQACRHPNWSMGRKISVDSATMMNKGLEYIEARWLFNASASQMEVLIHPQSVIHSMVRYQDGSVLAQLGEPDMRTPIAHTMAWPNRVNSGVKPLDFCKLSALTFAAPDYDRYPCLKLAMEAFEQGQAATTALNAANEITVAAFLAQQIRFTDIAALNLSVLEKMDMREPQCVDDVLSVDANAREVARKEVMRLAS
Description: Inhibition of Escherichia coli DXR.

Series [2] can be described thus: Half life in plasma. Format: ADME, cell-free.

`COc1ccc([C@@H](CCN(O)C(C)=O)P(=O)(O)O)cc1`: in the series with Plasmodium falciparum, the EC50 (in general, the concentration giving half of the maximal effect) worked out at 250 nM. Moreover, the IC50 (usually the concentration needed to halve the response being measured) in series [1] worked out at 459 nM.
In the series on Plasmodium falciparum, `CC(=O)N(O)CC[C@H](c1ccc(C)cc1)P(=O)(O)O` showed a concentration for a half-maximal effect (EC50) of 250 nM. This molecule also yielded an IC50 in series [1] of 396 nM.
For the molecule `CC(=O)N(O)CC[C@H](c1ccccc1)P(=O)(O)O`, the 50% effective concentration (EC50) in the series on Plasmodium falciparum was found to be 250 nM.
Turning to `CC(=O)N(O)CC[C@H](c1ccc(Cl)cc1)P(=O)(O)O`, the EC50 in the series with Plasmodium falciparum was 250 nM. Moreover, half-maximal inhibition in series [1] (IC50) required 99 nM.
`CC(=O)N(O)CC[C@H](c1ccc(Cl)c(Cl)c1)P(=O)(O)O` came in with a concentration giving a half-maximal response (EC50) with Plasmodium falciparum of 250 nM. Further, the IC50 in series [1] was found to be 119 nM.
With `O=CN(O)CCCc1ccc(Cl)c(Cl)c1`, the IC50 in series [1] is over 100000 nM.
In turn, `O=P(O)(O)Cc1ccc(Cl)c(Cl)c1` came in with a half-inhibitory concentration (IC50) in series [1] of over 100000 nM.
With `O=CN(O)CCCc1ccncc1`, the IC50 in series [1] was over 100000 nM.
On the same count and under the same terms, then `O=P(O)(O)Cc1ccncc1`, with 7100 nM; and `O=P(O)(O)Cc1cccnc1`, with 10000 nM.
On the same count and under the same terms, then `O=c1ccc(-c2ccccc2)cn1O` [1-HYDROXY-5-PHENYLPYRIDIN-2(1H)-ONE], with 1400 nM.
Consider `O=CN(O)CCCP(=O)(O)O` [FOSMIDOMYCIN], for which the half-life (in general, the time needed for the level to fall by half in the phase considered) in series [2] was 60 min. In addition, it took 1100 nM to reach a half-maximal effect in the series on Plasmodium falciparum (EC50).
